From the supplement of paper PMC11061612

Tests used:
Experiment in all cases: combination Emax (second highest fraction inhibited in the dose matrix, 72 h); higher = more inhibition; extreme values may be limits of the assay
[1] = test system: RPMI-8402 (T-Lymphoblastic Leukemia)
Outline: (§1)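 After 24 hours at 37°C and 5% CO2 in 1536-well plates, cells in DMEM/F12 or RPMI plus 10% FBS received two-drug dose matrices for 72 hours. Viability came from CellTiter-Glo 2.0 luminescence and was scaled as inhibition, anchored at 0 by vehicle wells and at 1 by blank wells. Combination Emax is taken as the second-highest inhibition in the matrix, and Bliss excess as the observed combination effect less EA + EB − EA·EB, with EA and EB the single-agent effects.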

NCI-H2452 (Mesothelioma) = test system: NCI-H2452 (Mesothelioma)
Outline: as §1

A375 (Melanoma) = test system: A375 (Melanoma)
Outline: as §1

[2] = test system: NCI-H2023 (Non-Small Cell Lung Carcinoma)
Outline: as §1

[3] = test system: NTERA-2-cl-D1 (Other Solid Carcinomas)
Outline: as §1

[4] = test system: COR-L105 (Lung Adenocarcinoma)
Outline: as §1

[5] = test system: NCI-H2009 (Lung Adenocarcinoma)
Outline: as §1

[6] = test system: OVKATE (Ovarian Carcinoma)
Outline: as §1

[7] = test system: NCI-H835 (Other Solid Carcinomas)
Outline: as §1

[8] = test system: TOV-21G (Ovarian Carcinoma)
Outline: as §1

[9] = test system: BT-474 (Breast Carcinoma)
Outline: as §1

[10] = test system: SCC90 (Head and Neck Carcinoma)
Outline: as §1

[11] = test system: SNU-1 (Gastric Carcinoma)
Outline: as §1

[12] = test system: RS4-11 (B-Lymphoblastic Leukemia)
Outline: as §1

[13] = test system: C2BBe1 (Colorectal Carcinoma)
Outline: as §1

[14] = test system: NCI-H1975 (Lung Adenocarcinoma)
Outline: as §1

[15] = test system: OCI-M1 (Acute Myeloid Leukemia)
Outline: as §1

[16] = test system: JURL-MK1 (Chronic Myelogenous Leukemia)
Outline: as §1

[17] = test system: SBC-5 (Small Cell Lung Carcinoma)
Outline: as §1

SK-N-DZ (Neuroblastoma) = test system: SK-N-DZ (Neuroblastoma)
Outline: as §1

SMILES	combination Emax [1]	combination Emax (NCI-H2452 (Mesothelioma))	combination Emax (A375 (Melanoma))	combination Emax [2]	combination Emax [3]	combination Emax [4]	combination Emax [5]	combination Emax [6]	combination Emax [7]	combination Emax [8]	combination Emax [9]	combination Emax [10]	combination Emax [11]	combination Emax [12]	combination Emax [13]	combination Emax [14]	combination Emax [15]	combination Emax [16]	combination Emax [17]	combination Emax (SK-N-DZ (Neuroblastoma))
CN(CCO)CC[C@H](CSc1ccccc1)Nc1ccc(S(=O)(=O)NC(=O)c2ccc(N3CCC([C@@H](O)c4ccccc4-c4ccc(Cl)cc4)CC3)cc2)cc1S(=O)(=O)C(F)(F)F [AZD4320] + CS(=O)(=O)CCNCc1ccc(-c2ccc3ncnc(Nc4ccc(OCc5cccc(F)c5)c(Cl)c4)c3c2)o1 [Lapatinib] (first compound max 1 µM, 7x7, partner max 10 µM)	0.988	0.581	0.413	0.301	0.965	0.917	0.349	0.677	0.982	–	–	–	–	–	–	–	–	–	–	–
O=C(c1cc(Cc2n[nH]c(=O)c3ccccc23)ccc1F)N1CCN(C(=O)C2CC2)CC1 [Olaparib] + CC1(C)CCC(CN2CCN(c3ccc(C(=O)NS(=O)(=O)c4ccc(NCC5CCOCC5)c([N+](=O)[O-])c4)c(Oc4cnc5[nH]ccc5c4)c3)CC2)=C(c2ccc(Cl)cc2)C1 [Venetoclax] (first compound max 10 µM, 7x7, partner max 1 µM)	0.53	0.143	0.176	0.134	0.383	0.128	0.174	0.122	0.169	–	–	–	–	–	–	–	–	–	–	–
CS(=O)(=O)CCNCc1ccc(-c2ccc3ncnc(Nc4ccc(OCc5cccc(F)c5)c(Cl)c4)c3c2)o1 [Lapatinib] + Cn1cnc2c(F)c(Nc3ccc(Br)cc3Cl)c(C(=O)NOCCO)cc21 [Selumetinib] (first compound max 10 µM, 7x7, partner max 10 µM)	0.924	0.466	0.736	0.297	0.339	0.682	0.53	0.31	0.257	–	–	–	–	–	–	–	–	–	–	–
O=C(c1cc(Cc2n[nH]c(=O)c3ccccc23)ccc1F)N1CCN(C(=O)C2CC2)CC1 [Olaparib] + Cc1c2c(nn1C)CSCc1cc(n(C)n1)CSc1cc(c3ccccc3c1)OCCCc1c(C(=O)O)n(C)c3c-2c(Cl)ccc13 [AZD5991] (first compound max 10 µM, 7x7, partner max 1 µM)	0.857	0.165	0.163	0.12	0.531	0.0887	0.107	0.0781	0.149	–	–	–	–	–	–	–	–	–	–	–
Cc1c2c(nn1C)CSCc1cc(n(C)n1)CSc1cc(c3ccccc3c1)OCCCc1c(C(=O)O)n(C)c3c-2c(Cl)ccc13 [AZD5991] + CCN(CCO)CCCOc1ccc2c(Nc3cc(CC(=O)Nc4cccc(F)c4)[nH]n3)ncnc2c1 [AZD2811] (first compound max 1 µM, 7x7, partner max 1 µM)	1	0.452	0.746	0.333	0.821	0.262	0.754	0.253	–	0.4	0.442	0.908	0.551	0.991	0.277	0.485	0.285	0.901	0.78	0.293
Cc1c2c(nn1C)CSCc1cc(n(C)n1)CSc1cc(c3ccccc3c1)OCCCc1c(C(=O)O)n(C)c3c-2c(Cl)ccc13 [AZD5991] + CN(C)CCCOc1ccc(-c2ccc3ncc4c(c3c2)n(C2CCOCC2)c(=O)n4C)cn1 [AZD0156] (first compound max 1 µM, 7x7, partner max 1 µM)	0.795	0.372	0.457	0.426	0.589	0.258	0.182	0.247	–	0.161	0.306	0.904	0.584	0.565	0.288	0.599	0.203	0.734	0.497	0.265
Cc1c2c(nn1C)CSCc1cc(n(C)n1)CSc1cc(c3ccccc3c1)OCCCc1c(C(=O)O)n(C)c3c-2c(Cl)ccc13 [AZD5991] + C=CCn1c(=O)c2cnc(Nc3ccc(N4CCN(C)CC4)cc3)nc2n1-c1cccc(C(C)(C)O)n1 [AZD1775] (first compound max 1 µM, partner max 1 µM)	1	0.623	0.818	0.603	0.82	0.454	0.75	0.428	–	0.732	0.469	0.952	0.6	0.995	0.341	0.677	0.921	0.999	0.694	0.948
CCN(CCO)CCCOc1ccc2c(Nc3cc(CC(=O)Nc4cccc(F)c4)[nH]n3)ncnc2c1 [AZD2811] + C=CCn1c(=O)c2cnc(Nc3ccc(N4CCN(C)CC4)cc3)nc2n1-c1cccc(C(C)(C)O)n1 [AZD1775] (first compound max 1 µM, partner max 1 µM)	1	0.574	0.482	0.574	0.845	0.331	0.749	0.233	–	0.591	0.125	0.752	0.675	0.965	0.274	0.364	0.922	0.995	0.732	0.96
